Our source for the IC50, inhibition and Ratio values is ChEMBL document CHEMBL1127889 (Bioorg Med Chem Lett, 1994).

For assay [1], the target named is T1, Endothelin-converting enzyme 1 (Bos taurus, UniProt P42891).
T1 sequence (P42891 whole entry): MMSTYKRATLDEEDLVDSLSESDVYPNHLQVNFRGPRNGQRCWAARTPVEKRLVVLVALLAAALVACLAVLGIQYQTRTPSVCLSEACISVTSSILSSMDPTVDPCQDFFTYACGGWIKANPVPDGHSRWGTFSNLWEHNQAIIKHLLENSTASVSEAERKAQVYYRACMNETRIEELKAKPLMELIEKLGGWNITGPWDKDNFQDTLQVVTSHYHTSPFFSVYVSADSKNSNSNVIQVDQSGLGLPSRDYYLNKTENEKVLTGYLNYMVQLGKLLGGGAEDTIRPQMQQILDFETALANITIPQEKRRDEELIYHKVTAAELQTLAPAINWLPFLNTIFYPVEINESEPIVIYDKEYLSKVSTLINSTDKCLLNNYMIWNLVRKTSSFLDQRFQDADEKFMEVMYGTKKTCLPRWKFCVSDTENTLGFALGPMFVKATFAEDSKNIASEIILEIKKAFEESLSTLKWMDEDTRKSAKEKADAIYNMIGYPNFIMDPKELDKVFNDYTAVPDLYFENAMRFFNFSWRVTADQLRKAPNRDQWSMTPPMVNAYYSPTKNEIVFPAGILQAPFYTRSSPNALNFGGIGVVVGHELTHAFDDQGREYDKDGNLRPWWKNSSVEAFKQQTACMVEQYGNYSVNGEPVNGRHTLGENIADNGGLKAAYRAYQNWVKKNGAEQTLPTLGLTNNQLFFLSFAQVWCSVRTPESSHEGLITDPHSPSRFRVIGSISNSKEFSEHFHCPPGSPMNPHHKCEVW
Description: Inhibition of Endothelin-converting enzyme (ECE) from microsomal fractions of bovine cultured endothelial cells. The format is cell-based, Endothelial cell.

For assay [2], the target named is T2, Endothelin-converting enzyme 1 (Bos taurus) (UniProt P42891).
T2 sequence (whole entry): T1 sequence (P42891 whole entry)
Description: Inhibitory activity against Endothelin-converting enzyme (ECE) prepared from the microsomal fractions of bovine cultured endothelial cells at a concentration of 100 uM. The format is cell-based. The note with it: Endothelial cell.

In the next assay the target is T3, Neprilysin (Rattus norvegicus, UniProt P07861).
T3 sequence (P07861 whole entry): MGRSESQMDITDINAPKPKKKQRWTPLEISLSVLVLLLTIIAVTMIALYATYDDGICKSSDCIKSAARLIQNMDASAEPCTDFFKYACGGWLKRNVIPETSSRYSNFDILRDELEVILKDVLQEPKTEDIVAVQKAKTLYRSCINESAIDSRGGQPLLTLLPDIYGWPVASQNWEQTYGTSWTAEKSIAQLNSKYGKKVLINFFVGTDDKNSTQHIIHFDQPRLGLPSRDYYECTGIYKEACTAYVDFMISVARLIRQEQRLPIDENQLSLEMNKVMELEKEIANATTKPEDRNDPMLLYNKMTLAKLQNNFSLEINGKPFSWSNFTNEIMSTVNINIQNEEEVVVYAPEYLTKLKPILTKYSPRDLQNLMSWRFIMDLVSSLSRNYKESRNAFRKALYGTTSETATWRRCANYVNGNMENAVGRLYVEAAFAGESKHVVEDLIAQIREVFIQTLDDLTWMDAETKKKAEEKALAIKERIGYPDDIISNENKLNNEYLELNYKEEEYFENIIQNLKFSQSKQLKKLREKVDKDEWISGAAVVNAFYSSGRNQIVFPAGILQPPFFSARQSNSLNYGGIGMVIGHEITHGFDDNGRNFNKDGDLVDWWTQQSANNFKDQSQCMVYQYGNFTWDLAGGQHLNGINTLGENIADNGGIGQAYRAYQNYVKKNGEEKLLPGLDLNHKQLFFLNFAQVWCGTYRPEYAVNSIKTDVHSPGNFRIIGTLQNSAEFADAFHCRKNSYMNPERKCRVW
Briefly: Inhibitory activity against neutral endopeptidase (NEP)prepared from microsomal fractions of rat small intestine.

A short description of assay [3]: Selectivity ratio against ECE/NEP.
In assay [4] the target is T2, Endothelin-converting enzyme 1 (Bos taurus). Briefly: Inhibitory activity against Endothelin converting enzyme (ECE) prepared from the microsomal fractions of bovine cultured endothelial cells at a concentration of 100 uM. The format is cell-based. The note with it: Endothelial cell.

By IC50 is commonly meant the concentration that inhibits the measured activity by half. Lower therefore signals greater potency. One may read the inhibition as the relative decrease from the control value, in per cent.

On to `CC(C)C[C@H](NC(CCc1ccccc1)P(=O)(O)O)C(=O)N[C@@H](Cc1c[nH]c2ccccc12)C(=O)O` (stereo partly specified), for which the IC50 worked out at 1100 nM in assay [1] and 130 nM against Neprilysin. Moreover, in assay [2], the inhibition amounted to 33%. The Ratio in assay [3] turned out to be 120.

In the case of `CC(C)C[C@H](NC(CCCc1ccccc1)P(=O)(O)O)C(=O)N[C@@H](Cc1c[nH]c2ccccc12)C(=O)O` (stereo partly specified), the IC50 was 7100 nM in assay [1] and 1100 nM against Neprilysin. This compound showed an inhibition in assay [2] of 38%. Further, the Ratio in assay [3] is 150.

Consider `CC(C)C[C@H](NP(=O)(O)O)C(=O)N[C@@H](Cc1cccc2ccccc12)C(=O)O`, for which the IC50 in assay [1] was 7400 nM.

In assay [1], `CCCC[C@H](NP(=O)(O)O)C(=O)N[C@@H](Cc1c[nH]c2ccccc12)C(=O)O` came in with an IC50 of 1500 nM.

`CC(C)C[C@H](NP(=O)(O)O)C(=O)N[C@@H](Cc1c[nH]c2ccccc12)C(=O)O`: in assay [1], 960 nM corresponded to half-maximal inhibition (IC50).

`CC[C@@H](C)[C@H](NP(=O)(O)O)C(=O)N[C@@H](Cc1c[nH]c2ccccc12)C(=O)O` returned a concentration for half-maximal inhibition (IC50) in assay [1] of 2800 nM.

As for `CC(C)C[C@H](NC(CCc1cccc2ccccc12)P(=O)(O)O)C(=O)N[C@@H](Cc1c[nH]c2ccccc12)C(=O)O` (stereo partly specified), the IC50 stood at 260 nM in assay [1] and 140 nM on Neprilysin. The compound also registered an inhibition in assay [4] of 31%. Besides, in assay [3], the Ratio is 540.

For the compound `CC(C)C[C@H](NC(CCc1c[nH]c2ccccc12)P(=O)(O)O)C(=O)N[C@@H](Cc1c[nH]c2ccccc12)C(=O)O` (stereo partly specified), the IC50 in assay [1] was found to be 1900 nM; against Neprilysin it was 560 nM. Besides, in assay [3], the Ratio worked out at 290.

As to `CCCC(N[C@@H](CC(C)C)C(=O)N[C@@H](Cc1c[nH]c2ccccc12)C(=O)O)P(=O)(O)O` (stereo partly specified), the figures for the IC50 (in assay [1]; against Neprilysin) were 15000 nM and 550 nM, respectively. Moreover, in assay [3], the Ratio was determined as 37.

`CC(C)C[C@H](NC(CCc1ccc(O)cc1)P(=O)(O)O)C(=O)N[C@@H](Cc1c[nH]c2ccccc12)C(=O)O` (stereo partly specified): the concentration for half-maximal inhibition (IC50) worked out at 3000 nM in assay [1] and 130 nM on Neprilysin. The inhibition in assay [2] stood at 42%. In addition, the Ratio in assay [3] came out at 43.

In assay [2], `CC(C)[C@H](NP(=O)(O)O)C(=O)N[C@@H](CC(N)=O)C(=O)O` gave an inhibition of 14%.

For `CC(C)C[C@H](NCP(=O)(O)O)C(=O)N[C@@H](Cc1c[nH]c2ccccc12)C(=O)O`, the IC50 came to 3400 nM in assay [1] and 24 nM on Neprilysin. Besides, the Ratio in assay [3] was found to be 7.1.

As for `CC(C)C[C@H](NP(=O)(O)OC1O[C@@H](C)[C@H](O)[C@@H](O)[C@H]1O)C(=O)N[C@@H](Cc1c[nH]c2ccccc12)C(=O)O` (single isomer, unassigned) [PHOSPHORAMIDON], on Neprilysin, the midpoint of inhibition, the IC50, lay at 4.2 nM.
